Experimental findings from patent EP4467141A1, “PYRAZOLO-QUINOLINES AS SELECTIVE INHIBITORS OF GENOTOXIC STRESS-INDUCED IKK/NF- KB PATHWAYS FOR CANCER THERAPY” (Max-Delbrück-Centrum für Molekulare Medizin in der …, priority 2023, dated 2024) are described below.

What all share (test): Kinase panel study
Assay type in all cases: biochemical
Holding throughout (settings): read-out: Percentage of inhibition; for inhibition at 1 µM: 1000nM; for inhibition at 10 µM: 10000nM

In assay [1] the target is T1, HIPK1 (Myak) (Homo sapiens, UniProt Q86Z02).
T1 construct: purchased Thermo Fisher Scientific
Summed up:
(§1)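 In vitro, kinase panel; ZLyte or Adapta SOP; single-concentration testing (1 or 10 µM); output = % inhibition, plus IC50 in panel.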

In assay [2] the target is T2, MAPKAPK2 (Homo sapiens, UniProt P49137).
T2 construct: purchased Thermo Fisher Scientific
Summed up:
as §1

For assay [3], the target named is T3, EGFR (ErbB1) T790M L858R (Homo sapiens, UniProt P00533, L858R/T790M).
T3 construct: purchased Thermo Fisher Scientific
Summed up:
as §1

For assay [4], the target named is T4, MARK3 (Homo sapiens, UniProt P27448).
T4 construct: purchased Thermo Fisher Scientific
Summed up: as §1

Assay [5] concerns the target T5, PRKD2 (PKD2) (Homo sapiens, UniProt Q9BZL6).
T5 construct: purchased Thermo Fisher Scientific
T5 sequence (Q9BZL6 1-878): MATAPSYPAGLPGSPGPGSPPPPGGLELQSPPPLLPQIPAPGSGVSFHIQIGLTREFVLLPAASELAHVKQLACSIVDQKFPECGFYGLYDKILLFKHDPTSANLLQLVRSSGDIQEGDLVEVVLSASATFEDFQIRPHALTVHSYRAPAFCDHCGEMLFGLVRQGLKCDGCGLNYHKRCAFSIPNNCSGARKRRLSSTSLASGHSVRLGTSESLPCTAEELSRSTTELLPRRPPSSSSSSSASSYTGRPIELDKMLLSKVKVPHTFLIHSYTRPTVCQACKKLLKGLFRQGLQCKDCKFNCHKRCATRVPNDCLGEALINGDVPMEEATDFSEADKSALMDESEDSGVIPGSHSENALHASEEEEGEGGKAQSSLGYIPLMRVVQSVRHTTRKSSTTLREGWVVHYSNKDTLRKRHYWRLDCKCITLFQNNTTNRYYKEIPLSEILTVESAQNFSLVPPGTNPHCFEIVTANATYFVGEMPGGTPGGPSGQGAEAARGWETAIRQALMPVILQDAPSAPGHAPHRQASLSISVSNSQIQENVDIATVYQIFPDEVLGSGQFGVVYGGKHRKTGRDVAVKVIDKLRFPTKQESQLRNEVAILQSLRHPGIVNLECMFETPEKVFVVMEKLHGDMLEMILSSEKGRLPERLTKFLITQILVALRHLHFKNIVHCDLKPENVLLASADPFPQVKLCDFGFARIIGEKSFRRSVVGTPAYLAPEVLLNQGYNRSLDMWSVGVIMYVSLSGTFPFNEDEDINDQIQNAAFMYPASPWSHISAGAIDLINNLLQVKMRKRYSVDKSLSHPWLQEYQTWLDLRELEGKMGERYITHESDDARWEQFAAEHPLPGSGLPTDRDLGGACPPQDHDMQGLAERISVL
The procedure, abridged: as §1

The target in assay [6] is T6, GRK5 (Homo sapiens, UniProt P34947).
T6 construct: purchased Thermo Fisher Scientific
The procedure, abridged: as §1

For orientation: inhibition means the change of the read-out against control, counted positive when it falls.

T3 sequence (P00533 25-1210 T790M/L858R): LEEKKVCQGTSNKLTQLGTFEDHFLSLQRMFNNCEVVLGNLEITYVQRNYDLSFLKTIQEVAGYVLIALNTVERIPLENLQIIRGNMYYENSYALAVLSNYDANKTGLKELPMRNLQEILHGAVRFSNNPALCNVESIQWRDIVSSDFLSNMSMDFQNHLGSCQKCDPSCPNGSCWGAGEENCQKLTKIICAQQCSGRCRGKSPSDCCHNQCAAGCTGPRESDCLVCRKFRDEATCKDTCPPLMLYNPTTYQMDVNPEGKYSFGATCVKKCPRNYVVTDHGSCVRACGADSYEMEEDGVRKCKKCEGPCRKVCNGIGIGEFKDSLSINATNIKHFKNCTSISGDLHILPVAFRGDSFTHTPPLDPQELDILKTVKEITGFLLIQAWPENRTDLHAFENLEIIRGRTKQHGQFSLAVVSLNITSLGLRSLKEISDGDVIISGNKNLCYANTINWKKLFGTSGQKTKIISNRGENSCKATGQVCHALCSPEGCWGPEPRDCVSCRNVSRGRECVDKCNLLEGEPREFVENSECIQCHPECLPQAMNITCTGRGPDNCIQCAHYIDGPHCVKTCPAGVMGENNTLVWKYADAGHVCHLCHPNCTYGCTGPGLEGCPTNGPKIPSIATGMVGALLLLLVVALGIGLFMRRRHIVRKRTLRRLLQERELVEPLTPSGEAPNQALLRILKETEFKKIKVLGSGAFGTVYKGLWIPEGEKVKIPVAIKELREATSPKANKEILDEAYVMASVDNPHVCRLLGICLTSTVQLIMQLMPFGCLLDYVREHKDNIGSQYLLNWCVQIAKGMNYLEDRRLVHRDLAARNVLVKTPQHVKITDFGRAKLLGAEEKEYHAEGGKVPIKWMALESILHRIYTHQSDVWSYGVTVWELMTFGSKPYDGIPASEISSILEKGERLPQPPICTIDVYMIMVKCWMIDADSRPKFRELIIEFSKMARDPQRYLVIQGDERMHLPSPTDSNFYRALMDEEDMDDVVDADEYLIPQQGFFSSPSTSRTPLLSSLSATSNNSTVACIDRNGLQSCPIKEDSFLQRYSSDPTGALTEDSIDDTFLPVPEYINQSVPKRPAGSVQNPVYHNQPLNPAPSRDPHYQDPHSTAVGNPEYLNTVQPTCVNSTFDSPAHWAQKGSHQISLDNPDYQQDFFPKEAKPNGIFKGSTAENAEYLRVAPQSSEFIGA
T4 sequence (P27448 whole entry): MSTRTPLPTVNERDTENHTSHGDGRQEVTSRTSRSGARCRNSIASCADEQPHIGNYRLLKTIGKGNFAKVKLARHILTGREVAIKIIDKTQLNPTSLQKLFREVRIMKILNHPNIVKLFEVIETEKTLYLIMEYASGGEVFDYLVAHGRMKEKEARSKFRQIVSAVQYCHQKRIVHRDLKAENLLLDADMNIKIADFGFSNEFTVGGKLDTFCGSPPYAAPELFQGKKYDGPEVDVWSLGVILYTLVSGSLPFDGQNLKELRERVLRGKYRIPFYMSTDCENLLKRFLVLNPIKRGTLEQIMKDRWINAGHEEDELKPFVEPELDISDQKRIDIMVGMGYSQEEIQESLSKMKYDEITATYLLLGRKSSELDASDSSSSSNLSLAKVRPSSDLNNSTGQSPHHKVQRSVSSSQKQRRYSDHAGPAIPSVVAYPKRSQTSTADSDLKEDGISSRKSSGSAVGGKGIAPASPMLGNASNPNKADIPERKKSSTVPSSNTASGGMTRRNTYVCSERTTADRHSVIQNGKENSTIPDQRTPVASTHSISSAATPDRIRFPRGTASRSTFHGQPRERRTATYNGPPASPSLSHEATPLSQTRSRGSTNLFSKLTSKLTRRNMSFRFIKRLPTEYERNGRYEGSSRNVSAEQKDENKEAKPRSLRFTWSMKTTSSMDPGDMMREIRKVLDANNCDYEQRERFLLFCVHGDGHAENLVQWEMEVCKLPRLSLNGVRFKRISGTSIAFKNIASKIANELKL
T6 sequence (P34947 whole entry): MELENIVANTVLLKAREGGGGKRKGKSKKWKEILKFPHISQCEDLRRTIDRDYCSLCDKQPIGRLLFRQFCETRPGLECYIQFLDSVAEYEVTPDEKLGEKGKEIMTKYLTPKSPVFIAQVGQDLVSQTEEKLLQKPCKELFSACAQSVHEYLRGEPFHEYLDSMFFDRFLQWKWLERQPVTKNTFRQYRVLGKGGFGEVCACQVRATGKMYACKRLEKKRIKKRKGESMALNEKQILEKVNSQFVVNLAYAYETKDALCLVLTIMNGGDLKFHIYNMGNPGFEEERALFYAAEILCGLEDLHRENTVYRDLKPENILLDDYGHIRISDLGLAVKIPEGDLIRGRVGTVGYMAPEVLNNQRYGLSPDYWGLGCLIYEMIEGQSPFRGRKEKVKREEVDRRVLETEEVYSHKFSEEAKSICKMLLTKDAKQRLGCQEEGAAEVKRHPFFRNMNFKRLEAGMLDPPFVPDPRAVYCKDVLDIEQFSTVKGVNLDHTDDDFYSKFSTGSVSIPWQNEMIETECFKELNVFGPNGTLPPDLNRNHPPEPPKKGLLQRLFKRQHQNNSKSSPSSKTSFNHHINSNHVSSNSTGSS
T2 sequence (P49137 whole entry): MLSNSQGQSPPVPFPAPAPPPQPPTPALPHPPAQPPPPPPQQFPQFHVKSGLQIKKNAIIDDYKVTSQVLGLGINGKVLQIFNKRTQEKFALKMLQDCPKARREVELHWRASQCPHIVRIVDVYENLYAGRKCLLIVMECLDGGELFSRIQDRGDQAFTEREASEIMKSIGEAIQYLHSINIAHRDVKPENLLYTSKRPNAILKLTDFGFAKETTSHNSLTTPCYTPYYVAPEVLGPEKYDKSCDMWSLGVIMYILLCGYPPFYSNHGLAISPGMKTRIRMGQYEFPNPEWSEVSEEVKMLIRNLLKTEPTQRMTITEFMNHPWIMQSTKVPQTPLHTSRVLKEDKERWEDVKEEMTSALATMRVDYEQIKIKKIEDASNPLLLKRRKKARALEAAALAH
T1 sequence (Q86Z02 whole entry): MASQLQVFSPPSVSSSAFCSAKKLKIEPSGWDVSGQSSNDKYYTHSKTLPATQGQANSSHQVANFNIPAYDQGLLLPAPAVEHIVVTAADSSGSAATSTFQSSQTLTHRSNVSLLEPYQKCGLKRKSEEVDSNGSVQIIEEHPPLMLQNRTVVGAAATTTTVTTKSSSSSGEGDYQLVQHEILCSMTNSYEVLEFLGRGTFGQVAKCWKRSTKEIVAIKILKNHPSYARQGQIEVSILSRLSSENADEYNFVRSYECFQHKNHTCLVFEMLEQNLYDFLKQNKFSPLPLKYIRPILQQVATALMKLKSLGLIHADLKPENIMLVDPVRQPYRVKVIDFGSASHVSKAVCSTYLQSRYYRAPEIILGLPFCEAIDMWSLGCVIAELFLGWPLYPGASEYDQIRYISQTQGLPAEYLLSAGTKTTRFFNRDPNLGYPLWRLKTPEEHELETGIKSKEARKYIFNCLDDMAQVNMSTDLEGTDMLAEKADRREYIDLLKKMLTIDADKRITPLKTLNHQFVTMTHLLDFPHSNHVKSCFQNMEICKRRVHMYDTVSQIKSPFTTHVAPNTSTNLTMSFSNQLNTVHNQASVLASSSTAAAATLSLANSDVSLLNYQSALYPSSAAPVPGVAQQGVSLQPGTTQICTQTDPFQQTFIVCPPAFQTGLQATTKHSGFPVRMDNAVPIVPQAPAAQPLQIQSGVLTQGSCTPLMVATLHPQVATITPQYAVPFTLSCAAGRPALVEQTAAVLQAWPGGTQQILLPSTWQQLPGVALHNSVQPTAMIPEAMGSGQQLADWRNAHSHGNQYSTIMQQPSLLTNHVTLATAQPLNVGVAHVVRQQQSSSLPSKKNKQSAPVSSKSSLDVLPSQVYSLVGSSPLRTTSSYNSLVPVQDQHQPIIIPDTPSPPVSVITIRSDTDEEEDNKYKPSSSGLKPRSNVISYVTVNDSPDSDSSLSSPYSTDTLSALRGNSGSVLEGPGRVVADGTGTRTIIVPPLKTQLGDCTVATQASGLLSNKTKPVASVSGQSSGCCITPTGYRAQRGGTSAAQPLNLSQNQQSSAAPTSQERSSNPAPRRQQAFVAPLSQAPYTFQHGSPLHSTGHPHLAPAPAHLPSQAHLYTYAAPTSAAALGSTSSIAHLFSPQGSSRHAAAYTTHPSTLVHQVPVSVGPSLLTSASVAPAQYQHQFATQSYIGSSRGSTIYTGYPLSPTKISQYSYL

For `COc1ccc2c(c1OC)c(=O)n1c3ccc(O)cc3c3ccnc2c31` [MW01, 5-Hydroxy-10,11-dimethoxy-9H-benzo[c]indolo[3,2,1-ij][1,5]naphthyridin-9-one], the inhibition at 1 µM is 21% in assay [1]; 3% in assay [2]; 9% in assay [3]; 0% in assay [4]; 38% in assay [5]; -3% in assay [6]. Moreover, the inhibition at 10 µM in assay [1] turned out to be 47%; in assay [2] it was 3%; in assay [3], 29%; in assay [4], 7%; in assay [5], 71%; in assay [6] it was 0%.

Turning to `COc1ccc2cc3c(N)nn(C(=O)c4cccc(N(C)C)c4)c3nc2c1` [MW05, (3-Amino-7-methoxypyrazolo[3,4-b]quinolin-1-yl)-[3-(dimethylamino)phenyl]methanone], the inhibition at 1 µM in assay [1] was -4%; in assay [2], 4%; in assay [3], -5%; in assay [4], 3%; in assay [5] it was 11%; in assay [6], -2%. Further, the inhibition at 10 µM in assay [1] is -6%; in assay [2], -6%; in assay [3], 10%; in assay [4], -5%; in assay [5], 10%; in assay [6] it was 0%.
